Experimental data: ChEMBL document CHEMBL3885861, “Open TG-GATES”

Species: Rattus norvegicus
Experiment: Open TG-GATES - Regimen: Single
Format: toxicity, organism-based, Sprague-Dawley
Set-up: regimen Single, gender Male, age 6 weeks
Conditions: in vivo, po, route gavage; for APTT / Bas / Eos / Fbg / Hb / Ht / Lym / MCHC / MCV / Mono / PT / Plat / RBC / Ret / WBC: tissue Blood; for KIDNEY_L / KIDNEY_R / KIDNEY_TOTAL: tissue Kidney; for LIVER: tissue Liver; for ALP / ALT / AST / BUN / CRE / Ca / Cl / DBIL / IP / LDH / Na / PL / RALB / TBIL / TC / TG / TP / gamma-GTP: tissue Plasma
[1] = 0 mg/kg, 3 h, dose level Control
[2] = 0 mg/kg, 6 h, dose level Control
[3] = 0 mg/kg, 9 h, dose level Control
[4] = 0 mg/kg, 24 h, dose level Control

Question: What does the source list for `CC(C)N(CCC(C(N)=O)(c1ccccc1)c1ccccn1)C(C)C` (centres undefined) [DISOPYRAMIDE]?
Answer: TERMINAL_BW [1]: 207.1 g; APTT [1]: 21.7 s; Bas [1]: 0%; Eos [1]: 1%; Fbg [1]: 318.8 mg/dL; Hb [1]: 13.2 g/dL; Ht [1]: 41.1%; Lym [1]: 77.6%; MCHC [1]: 32.1%; MCV [1]: 64.4 fL; Mono [1]: 2.6%; PT [1]: 15.8 s; Plat [1]: 117.3 x10_4/uL; RBC [1]: 638.6 x10_4/ul; Ret [1]: 8%; WBC [1]: 84.7 x10_2/uL; KIDNEY_L [1]: 0.9 g; KIDNEY_R [1]: 0.9 g; KIDNEY_TOTAL [1]: 1.9 g; LIVER [1]: 9.6 g; ALP [1]: 1747.4 IU/L; ALT [1]: 51 IU/L; AST [1]: 79.8 IU/L; BUN [1]: 12.4 mg/dL; CRE [1]: 0.2 mg/dL; Ca [1]: 10.5 mg/dL; Cl [1]: 108.2 meq/L; DBIL [1]: 0 mg/dL; IP [1]: 8.5 mg/dL; LDH [1]: 193.8 IU/L; Na [1]: 141.8 meq/L; PL [1]: 122.6 mg/dL; RALB [1]: 2.9 g/dL; TBIL [1]: 0.006 mg/dL; TC [1]: 69 mg/dL; TG [1]: 45.4 mg/dL; TP [1]: 5.4 g/dL; gamma-GTP [1]: 1.4 IU/L; TERMINAL_BW [2]: 210.2 g; APTT [2]: 22.4 s; Bas [2]: 0%; Eos [2]: 0.4%; Fbg [2]: 310.2 mg/dL; Ht [2]: 39.9%; Lym [2]: 80.8%; MCHC [2]: 32%; MCV [2]: 64.8 fL; Mono [2]: 2.6%; PT [2]: 15.7 s; Plat [2]: 122.8 x10_4/uL; RBC [2]: 615.4 x10_4/ul; Ret [2]: 7.8%; WBC [2]: 110.6 x10_2/uL; KIDNEY_L [2]: 1 g; KIDNEY_R [2]: 1 g; KIDNEY_TOTAL [2]: 1.9 g; LIVER [2]: 9.3 g; ALT [2]: 42.4 IU/L; AST [2]: 73.2 IU/L; BUN [2]: 13 mg/dL; CRE [2]: 0.1 mg/dL; Ca [2]: 10.8 mg/dL; Cl [2]: 105.6 meq/L; DBIL [2]: 0 mg/dL; IP [2]: 9.3 mg/dL; LDH [2]: 164.8 IU/L; Na [2]: 140.6 meq/L; PL [2]: 135 mg/dL; RALB [2]: 2.9 g/dL; TBIL [2]: 0.004 mg/dL; TC [2]: 72.6 mg/dL; TG [2]: 91 mg/dL; TP [2]: 5.5 g/dL; gamma-GTP [2]: 1.2 IU/L; TERMINAL_BW [3]: 204.9 g; APTT [3]: 22.5 s; Bas [3]: 0%; Eos [3]: 0.4%; Fbg [3]: 300.8 mg/dL; Hb [3]: 12.9 g/dL; Ht [3]: 40%; Lym [3]: 80.6%; MCHC [3]: 32.3%; MCV [3]: 62.7 fL; Mono [3]: 2.6%; PT [3]: 15.9 s; Plat [3]: 113.2 x10_4/uL; RBC [3]: 638.2 x10_4/ul; Ret [3]: 7.5%; WBC [3]: 90.9 x10_2/uL; KIDNEY_L [3]: 1 g; KIDNEY_R [3]: 1 g; KIDNEY_TOTAL [3]: 2 g; LIVER [3]: 8.8 g; ALP [3]: 1336.4 IU/L; ALT [3]: 41.6 IU/L; AST [3]: 72.8 IU/L; BUN [3]: 13.4 mg/dL; CRE [3]: 0.1 mg/dL; Ca [3]: 10.5 mg/dL; Cl [3]: 106.6 meq/L; DBIL [3]: 0.002 mg/dL; IP [3]: 9.2 mg/dL; LDH [3]: 146.8 IU/L; Na [3]: 141.6 meq/L; PL [3]: 116.8 mg/dL; RALB [3]: 2.9 g/dL; TBIL [3]: 0.002 mg/dL; TC [3]: 62.4 mg/dL; TG [3]: 61.4 mg/dL; TP [3]: 5.4 g/dL; gamma-GTP [3]: 1.2 IU/L; TERMINAL_BW [4]: 222.5 g; APTT [4]: 21.9 s; Bas [4]: 0%; Eos [4]: 1%; Fbg [4]: 317 mg/dL; Hb [4]: 13.2 g/dL; Ht [4]: 40.9%; Lym [4]: 82.6%; MCHC [4]: 32.3%; MCV [4]: 65 fL; Mono [4]: 2.4%; PT [4]: 16 s; Plat [4]: 117 x10_4/uL; RBC [4]: 629.4 x10_4/ul; Ret [4]: 7.9%; WBC [4]: 80.5 x10_2/uL; KIDNEY_L [4]: 1 g; KIDNEY_R [4]: 1 g; KIDNEY_TOTAL [4]: 2 g; LIVER [4]: 10.6 g; ALP [4]: 1631 IU/L; ALT [4]: 53.6 IU/L; AST [4]: 78.6 IU/L; BUN [4]: 17 mg/dL; CRE [4]: 0.2 mg/dL; Ca [4]: 10.7 mg/dL; Cl [4]: 105 meq/L; DBIL [4]: 0 mg/dL; IP [4]: 7.8 mg/dL; LDH [4]: 192.4 IU/L; PL [4]: 143.2 mg/dL; RALB [4]: 3 g/dL; TBIL [4]: 0 mg/dL; TC [4]: 71.8 mg/dL; TG [4]: 104 mg/dL; TP [4]: 5.5 g/dL; gamma-GTP [4]: 2 IU/L; TERMINAL_BW (40 mg/kg, 3 h, dose level Low): 208.4 g; APTT (40 mg/kg, 3 h, dose level Low): 23 s; Bas (40 mg/kg, 3 h, dose level Low): 0%; Eos (40 mg/kg, 3 h, dose level Low): 1%; Fbg (40 mg/kg, 3 h, dose level Low): 313.4 mg/dL
